Values of other authors as cited in patent US20200308169A1, “HETEROCYCLIC COMPOUNDS AS ANTIBACTERIALS” (JANSSEN SCIENCES IRELAND UNLIMITED COMPANY, priority 2016, published 2020).
Converted amounts (≈) assume the structure as drawn.

Tests used:
[1] = test system: M. tuberculosis H37Rv; settings: strain H37Rv, inside macrophages
[2] = test system: replicating and non-replicating bacteria; settings: both replicating and non-replicating bacteria

For `CCc1nc2ccc(Cl)cn2c1C(=O)NCc1ccc(N2CCC(c3ccc(OC(F)(F)F)cc3)CC2)cc1` [Q203], the MIC50 [1] is given as 0.28 nM (≈ 0.156 ng/mL) and the “activity against replicating and non-replicating bacteria” value [2] is given as “highly active”.
